Laboratory results reported in patent publication US12121565B2, “Methods of treatment of specific cancers with NLRP3 inhibitors and anti-PD1/PD-L1 antibodies” (Duke University, priority 2019, dated 2024).

How the values were obtained:
[1] = system: BRAFV600E PTEN−/− melanoma cell line; test: In vitro treatment of melanoma cell line followed by Western blot, qRT-PCR, IP, ASC polymerization or ELISA; assay type: cell-based, mouse; conditions: with or without NLRP3 inhibitor MCC950
Source text: Braf^V600EPten^−/− (male, BPD6 (40)), Braf^V600EPten^−/−-Wnt5a^KD (40), Braf^V600EPten^−/−-CXCL5^KD, Braf^V600EPten^−/−-PDL1^KD, Braf^V600EPten^−/−-NLRP3^KD, OVA-expressing Braf^V600EPten^−/−, BRAF^V600EPTEN^−/−-STAT3^CA, and Braf^V600EPten^−/−-NTC (40) cell lines were generated using shRNA-expressing lentiviral vectors and cultured as previously described (40): shNLRP3 (Sigma, SHCLN-NM_145827), shPDL1 (Sigma, SHCLND-NM_021893), shWnt5a (Sigma, SHCLND-NM_009524), shTLR4 (Sigma, SHCLNG-NM_025817, and pLKO.1-puro empty vector control (NTC) (Sigma, SHC001). Stable cell lines were selected by puromycin resistance (Sigma-Aldrich, P8833). Murine Lewis Lung Carcinoma (LLC) cell line is from ATCC (1704526). All cell lines were tested Mycoplasma-free by Duke University Cell Culture Facility shared services. All Braf^V600EPten^−/− cell lines and the LLC cell line were maintained at 37° C. in DMEM (Invitrogen) with 2 mM L-glutamine, supplemented with 10% fetal bovine serum, 100 units/ml penicillin. Depending on the experiment, cell lines were treated with Wnt5a (100-200 ng/ml, R&D Systems/Bio-techne, 645-WN-010), IFNγ (100 ng/ml, BioAbChem, 42-IFNg), anti-PD-L1 ab (1-2 μg/ml), Hsp70 (1 μM-10 μM, Enzo, ADI-ESP-502-D), Hsp70 inhibitor (ThermoFisher, VER155008), CLI-095 TLR4 inhibitor (3 μM-10 μM, Invivogen, tlrl-cli95), TLR2-IN-C29 TLR2 inhibitor (1 μM-10 μM, Glixx, GLXC-06203), MPLA TLR4 agonist (10 μM, Enzo, ALX-581-205-C100), LPS (Lipopolysaccharide) (10 ng, Sigma-Aldrich, L4391-1MG), ATP (1 mM-5 mM, Invivogen, tlrl-atpl), MCC950 NLRP3 inhibitor (2.5 μM-10 μM, Invivogen, inh-mcc), XAV939 β-catenin inhibitor (0.5-1.0 μM, Sigma-Aldrich, X3004-5MG), 2-Aminopurine PKR inhibitor (1 mM-5 mM, Invivogen, tlrl-apr), Verteporfin YAP inhibitor (0.1 μM-1 μM, R&D Systems/Bio-techne, 530510) or vehicle control either for 24 or 48 hrs prior to in vitro and in vivo experiments. Control siRNA (Santa Cruz, sc-37007). TLR4 siRNA (SantaCruz, sc-40261).
(§1) OT-1 CD8 cell activation was performed by incubating isolated splenocytes of OT-1 transgenic mice with IL-2 (100 U/ml) and SIINFEKL peptide (1 μg/ml, New England Peptide, BP10-915) for 3 days followed by magnetic bead CD8 purification according to the manufacturer's instructions (Miltenyi biotec, 130-104-075). Activated OT-1 CD8 cells were incubated with Braf^V600EPten^−/−-OVA cells and treated with anti-PD1 ab (1 μg/ml) for 72 hrs at a tumor cell:CD8^+ T cell ratio of 1:5. In separate experiments, Braf^V600EPten^−/− cells were treated with increasing concentrations of Dacarbazine (10 μmol-400 μmol).
Tumor tissue or cells were homogenized in NP40 lysis buffer (Sigma-Aldrich) supplemented with complete protease inhibitor and phosphatase inhibitor (Roche). Cells were lysed in Laemmli sample buffer after treatment and subjected to SDS-polyacrylamide gel electrophoresis. After transferring onto PVDF membranes (Bio-Rad), monoclonal and polyclonal primary antibodies and appropriate HRP-conjugated secondary antibodies were utilized for blotting. For the immunoprecipitation assays, cells were lysed with TBS buffer (50 mM Tris-HCl (pH 7.4), 150 mM NaCl) containing 0.5% Triton X-100, EDTA-free protease inhibitor cocktail and phosphatase inhibitor cocktail, precleared with protein A/G beads, and then incubated with 1 μg of appropriate antibodies or isotype control IgG on a rotator overnight at 4° C. then incubated with protein A/G-agarose at 4° C. for 1 hour. After 5 washes with TBS buffer, immunoprecipitated complexes were eluted in sample buffer by boiling and subjected to immunoblot analysis. Immunoblots were visualized by chemiluminescence substrate (ThermoFisher) and imaged by a ChemiDoc XRSplus system (BioRad). For the ASC polymerization assay, cells were lysed with TBS buffer containing 0.5% Triton X-100, EDTA-free protease inhibitor cocktail and phosphatase inhibitor cocktail. The lysates were centrifuged at 4,000 g at 4° C. for 15 min. […]

[2] = system: OT-1 CD8+ T cell:BRAFV600E OVA melanoma coculture; test: Coculture of OT-1 CD8+ T cells with OVA-expressing melanoma cells followed by Western blot; assay type: cell-based, mouse; conditions: increasing concentrations of NLRP3 inhibitor
Description: as §1
Tumor tissue or cells were homogenized in NP40 lysis buffer (Sigma-Aldrich) supplemented with complete protease inhibitor and phosphatase inhibitor (Roche). Cells were lysed in Laemmli sample buffer after treatment and subjected to SDS-polyacrylamide gel electrophoresis. After transferring onto PVDF membranes (Bio-Rad), monoclonal and polyclonal primary antibodies and appropriate HRP-conjugated secondary antibodies were utilized for blotting. […]

In the case of `CC(C)(O)c1coc(S(=O)(=O)NC(=O)Nc2c3c(cc4c2CCC4)CCC3)c1` [MCC950, N-[[(1,2,3,5,6,7-hexahydro-s-indacen-4-yl)amino]carbonyl]-4-(1-hydroxy-1-methylethyl)-2-furansulfonamide], the “ATP stimulation of HSP70 release” value [1] was “block” and the “CD8+ T cell-mediated induction of HSP70 release” value [2] was “block”.
